According to patent publication US20220370450A1, “CONTROLLED-RELEASE COMPOSITION FOR ORAL ADMINISTRATION COMPRISING COMPLEX OF ALPHA ADRENERGIC BLOCKER COMPOUND AND CLAY MINERAL” (Korea Institute Of Geoscience And Mineral Resources, priority 2019, published 2022):

Legend:
[1] = Drug release experiment using a semi-permeable membrane; type: physicochemical; conditions: for elution rate: in both pH 1.2 and 7.8; for time within which most of the drug was released / drug released within initial 1 hour: semi-permeable membrane bag, cut-off 12,000 to 14,000 Da, 37° C.; for drug released within initial 1 hour: eluate pH 1.2 or pH 7.8; for release rate (membrane release amount of drug per unit time) of the drug solution relative to the drug-bentonite complex dispersion solution: semi-permeable membrane cut-off 12,000 to 14,000 Da
Method: The amount of the drug-bentonite complex was adjusted so that the drug final concentration inside the elution system became 1 μg/ml. At this time, as the eluate, a 0.1 N hydrochloric acid solution of pH 1.2 and a phosphate buffer of pH 7.8 were used and the elution was performed while maintaining 37° C. While the eluate outside the semi-permeable membrane was partially taken by time and the same amount of eluate was compensated, the experiment was conducted, and the drug concentration of the taken sample was analyzed using high performance liquid chromatography.

[2] = rat, in vivo, po, 1 mg/kg
Method: (§1) The breeding conditions of the experimental animals were as follows.
(§2) After the femoral region of the fixed rat was shaved, the blood-gathering was prepared by injecting a cannula. A drug-bentonite complex dispersion solution as an experimental group and a drug aqueous solution as a control group were administered using an oral zonde and then a certain amount of plasma was collected through the cannula for each predetermined time and the plasma drug concentration was measured.
(§3) The drug concentrations in the plasma samples were analyzed using a mass spectrometer.

[3] = in vivo; conditions: Sprague-Dawley, rat, po, 1 mg/kg
Method: as §1, §2, §3

SMILES	release amount of the drug solution relative to the complex dispersion solution ([1]; after 4 hours of the test)	elution rate [1]	time within which most of the drug was released [1]	drug released within initial 1 hour [1]	release rate (membrane release amount of drug per unit time) of the drug solution relative to the drug-bentonite complex dispersion solution [1]	time within which the plasma concentration reached the maximum plasma concentration (Cmax) [2]	AUC(0-t) [3]	Cmax [3]	Tmax [3]	bioavailability [3]	release amount of the drug solution relative to the complex dispersion solution ([1]; after 2 hours of the test, pH 1.2)	release amount of the drug solution relative to the complex dispersion solution ([1]; after 2 hours of the test, pH 7.8)
COc1cc2nc(N3CCN(C(=O)C4COc5ccccc5O4)CC3)nc(N)c2cc1OC (centres unmarked) [Doxazosin, doxazosin]	two times larger	fast elution rate	≤ 4 h	≥ 50%	two times larger	30 to 60 min	186 ± 54.7 ng·h/mL	67.3 ± 14.2 ng/mL	45 ± 15 min	100%	–	–
COc1cc2nc(N3CCN(C(=O)c4ccco4)CC3)nc(N)c2cc1OC [Prazosin, prazosin]	–	fast elution rate	≤ 4 h	≥ 70%	larger	–	247 ± 45.1 ng·h/mL	129 ± 36.2 ng/mL	22.8 ± 7.8 min	100%	two times larger	significantly larger
